Entries after “also recorded” stand apart in the source; their conditions may differ. Like-named read-outs stand apart in the source and are kept apart here.
Tests used:
advanced solid tumors = assay: Tumor response, best overall response (RECIST version 1.0); assay type: in vivo, human (Japanese patients)
Description: (§1) The starting dose was 8 mg/m^2, and treatment cycles were 28 days. Intra-patient dose escalation was not permitted. An adaptive Bayesian logistic regression model (BLRM), guided by the escalation with overdose control (EWOC) principle, was used to guide dose escalations. The EWOC principle mandates the potential doses recommended for the next cohort and the estimated MTD have less than 25 % posterior probability of DLT in the excessive toxicity interval (33, 100 %). […] The occurrence of DLTs was evaluated during Cycle 1. A minimum of three patients were enrolled in a cohort, and the estimated MTD was continuously updated using the BLRM, and a minimum of six patients were planned to be enrolled at the MTD level. […] A minimum of 15 patients were required for the BLRM model to determine the MTD. […] Doses were individually adjusted according to body surface area measured at baseline.
(§2) Toxicity was graded according to the National Cancer Institute Common Toxicity Criteria version 3.0. […] Tumor response was assessed by computed tomography or magnetic resonance imaging, and using Response Evaluation Criteria in Solid Tumors version 1.0 for efficacy evaluations.

[1] = Description: Inclusion criteria included Eastern Cooperative Oncology Group performance status ≤2 and life expectancy ≥12 weeks.
as §1, §2
The DDS was used for the BLRM analyses in the determination of MTD.

[2] = Pharmacokinetics of AUY922 and its glucuronide metabolite BJP762 in blood (LC-MS/MS, non-compartmental); assay type: in vivo, human (Japanese patients with advanced solid tumors); conditions: for half-life / Tmax / AUC(0-inf) / AUC(0-t) / Cmax / clearance / Vd: human; for half-life / Tmax: blood; for Tmax: read-out: T max [median (range)]; for AUC(0-inf) / AUC(0-t) / Cmax / clearance / Vd: whole blood; for Vd: read-out: Vz
Description: Intra-patient dose escalation was not permitted. […] The occurrence of DLTs was evaluated during Cycle 1.

## CCNC(=O)c1noc(-c2cc(C(C)C)c(O)cc2O)c1-c1ccc(CN2CCOCC2)cc1 [AUY922, 5-[2,4-dihydroxy-5-isopropyl-phenyl]-N-ethyl-4-[4-(morpholinomethyl)phenyl]isoxazole-3-carboxamide]
Advanced solid tumors; 8 mg/m^2 (n = 3)
  Best overall response: Complete response: 0 n
  Best overall response: Partial response: 0 n
  Best overall response: Progressive disease: 2 n
  Best overall response: Stable disease: 1 n
  Best overall response: Unknown: 0 n
  Disease control rate (CR + PR + SD): 1 n
  Overall response rate (CR + PR): 0 n
Advanced solid tumors; 16 mg/m^2 (n = 3)
  Best overall response: Complete response: 0 n
  Best overall response: Partial response: 0 n
  Best overall response: Progressive disease: 2 n
  Best overall response: Stable disease: 1 n
  Best overall response: Unknown: 0 n
  Disease control rate (CR + PR + SD): 1 n
  Overall response rate (CR + PR): 0 n
Advanced solid tumors; 22 mg/m^2 (n = 3)
  Best overall response: Complete response: 0 n
  Best overall response: Partial response: 0 n
  Best overall response: Progressive disease: 3 n
  Best overall response: Stable disease: 0 n
  Best overall response: Unknown: 0 n
  Disease control rate (CR + PR + SD): 0 n
  Overall response rate (CR + PR): 0 n
Advanced solid tumors; 28 mg/m^2 (n = 5)
  Best overall response: Complete response: 0 n
  Best overall response: Partial response: 0 n
  Best overall response: Progressive disease: 4 n
  Best overall response: Stable disease: 1 n
  Best overall response: Unknown: 0 n
  Disease control rate (CR + PR + SD): 1 n
  Overall response rate (CR + PR): 0 n
Advanced solid tumors; 40 mg/m^2 (n = 3)
  Best overall response: Complete response: 0 n
  Best overall response: Partial response: 0 n
  Best overall response: Progressive disease: 2 n
  Best overall response: Stable disease: 1 n
  Best overall response: Unknown: 0 n
  Disease control rate (CR + PR + SD): 1 n
  Overall response rate (CR + PR): 0 n
Advanced solid tumors; 54 mg/m^2 (n = 6)
  Best overall response: Complete response: 0 n
  Best overall response: Partial response: 1 n
  Best overall response: Progressive disease: 3 n
  Best overall response: Stable disease: 1 n
  Best overall response: Unknown: 1 n
  Disease control rate (CR + PR + SD): 2 n
  Overall response rate (CR + PR): 1 n
Advanced solid tumors; 70 mg/m^2 (n = 8)
  Best overall response: Complete response: 0 n
  Best overall response: Partial response: 0 n
  Best overall response: Progressive disease: 3 n
  Best overall response: Stable disease: 5 n
  Best overall response: Unknown: 0 n
  Disease control rate (CR + PR + SD): 5 n
  Overall response rate (CR + PR): 0 n
Advanced solid tumors; 70-mg/m^2 cohort, five out of the eight patients
  Patients with best overall response of stable disease: 63%
Advanced solid tumors; Total, all doses (N = 31)
  Best overall response: Complete response: 0 n (%)
  Best overall response: Partial response: 1 (3) n (%)
  Best overall response: Progressive disease: 19 (61) n (%)
  Best overall response: Stable disease: 10 (32) n (%)
  Best overall response: Unknown: 1 (3) n (%)
  Disease control rate (CR + PR + SD): 11 (36) n (%)
  Overall response rate (CR + PR): 1 (3) n (%)
Advanced solid tumors; across all dose levels
  Disease control rate (DCR; PR + SD): 36%
Advanced solid tumors; all doses
  Complete response: no patients achieved a complete response
Advanced solid tumors; all doses (N = 31), one patient
  Patients with confirmed partial response: 3%
Advanced solid tumors; all doses (N = 31), ten patients, SD lasting ≥8 weeks
  Patients with best overall response of stable disease: 32%
Advanced solid tumors; one patient, rectal carcinoid tumor with lung metastatic lesions, 54 mg/m^2
  Duration of confirmed partial response: > 7 months
[1]; IV once-weekly, 8–70 mg/m^2 tested
  Maximum tolerated dose (MTD): No MTD was determined; also recorded: the MTD was not determined; also recorded: The MTD was not established
[1]; human, in vivo
  Diarrhea, AE regardless of relationship to study drug: 65%
  Fatigue, AE regardless of relationship to study drug: 29%
  Nausea, AE regardless of relationship to study drug: 29%
  Night blindness, AE regardless of relationship to study drug: 42%
  Patients with AEs requiring dose modification or interruption: 48%
  Patients with serious AEs (SAEs): 26%
[1]; human, in vivo, 28 days
  Patients who experienced DLTs: 3.6%
[1]; human, in vivo, iv
  Recommended Phase II dose (RP2D): 70 mg/m^2
[1]; in vivo
  Patients discontinued as a result of AEs related to study drug: two patients
  Patients with SAEs considered to be related to the study drug: two patients
[2]; entire dose range 8–70 mg/m^2
  Dose proportionality of C max in blood: generally increased in a dose-proportional manner; also recorded: increased generally in a dose-proportional manner
[2]; intravenous, 8 mg/m2
  half-life: 64 h
[2]; iv, 28 mg/m2
  half-life: 98.7 ± 23 h
  Tmax: 0.5 h
  AUC(0-inf): 9550 ng·h/mL
  AUC(0-t): 6810 ng·h/mL
  Cmax: 457 ± 101 ng/mL
  clearance: 79.8 mL/min
  Vd: 646 ± 111 L
[2]; iv, 40 mg/m2
  half-life: 123 ± 40.8 h
  Tmax: 1.05 h
  AUC(0-inf): 11400 ng·h/mL
  AUC(0-t): 6960 ng·h/mL
  Cmax: 710 ± 42 ng/mL
  clearance: 95.7 mL/min
  Vd: 980 ± 132 L
[2]; iv, 54 mg/m2
  half-life: 120 ± 28.5 h
  Tmax: 0.76 h
  AUC(0-inf): 12300 ng·h/mL
  AUC(0-t): 8880 ng·h/mL
  Cmax: 1050 ng/mL
  clearance: 121 mL/min
  Vd: 1190 L
[2]; iv, 70 mg/m2
  half-life: 127 ± 18.8 h
  Tmax: 1.02 h
  AUC(0-inf): 12600 ng·h/mL
  AUC(0-t): 8540 ng·h/mL
  Cmax: 1100 ng/mL
  clearance: 143 mL/min
  Vd: 1570 L
[2]; increased with dose from 8 to 28 mg/m^2
  Dose dependence of AUClast in blood: saturated at higher dose levels; also recorded: saturated at higher doses

From publication PMC4143601 (Cancer Chemotherapy and Pharmacology, 2014)
